Experimental data taken from PMC12389534, “Unlocking Therapeutic Potential of Novel Thieno-Oxazepine Hybrids as Multi-Target Inhibitors of AChE/BChE and Evaluation Against Alzheimer’s Disease: In Vivo, In Vitro, Histopathological, and Docking Studies” (Pharmaceuticals, 2025).

How the values were obtained:
[1] = system: AlCl3-induced AD rat model; test: Y-maze SAP test in AlCl3-induced AD rats; type: in vivo; conditions: for SAP%: mean ± SE, n = 6
Experimental: All procedures were conducted conforming to the applicable National Institutes of Health standards and regulations for the Care and Use of Laboratory Animals. In this experiment, adult male Dawley rats in excellent condition weighing between 300 and 320 g were used. The animals were acquired from the Nile Company for Pharmaceuticals and Chemical Industries (Cairo, Egypt). They were placed in a controlled laboratory setting with unrestricted access to water, a temperature range of 24 to 26 °C, and 12 h a light–dark cycle. Three rats per cage were housed in polycarbonate cages that were individually packed with paper and encased with stainless steel wire.
One kind of short-term memory that SAP can represent is spatial working memory. Three arms, designated A, B, or C, were employed in a black hardwood Y-maze with a symmetrical triangular core space. Rats were briefly positioned at the edge of one arm and given 8 min to freely navigate around the maze. When the rat’s rear paws were fully inside the arm, the entries were counted. The following formula was used to determine SAP based on the total number of arm entries and alternations: SAP (%) = [number of alternations/(total arm entries − 2)] × 100 [94].

BACE1 = test: Brain BACE1 level (ELISA); type: in vivo, rat; parameters: reduction of BACE1 levels: concentration or dose not given beside the values; conditions: AlCl3-induced AD rats; for BACE1 (ng/mL): mean ± SE, n = 6
Experimental: The brain tissues of the rats were removed and rigorously washed in isotonic saline 24 h after they were euthanized following the last behavioral test. For histological investigation, four brains per group were preserved for the whole night in 10% neutral buffered formalin. The remaining six brains were split into two sections each. In order to create a 10% homogenate (w/v), the first component was instantaneously homogenized using an ice-cold solution that included 300 mM sucrose and 50 mM Tris-HCl (pH 7.4). The homogenate was centrifuged at 1800× g for 10 min at 4 °C for biochemical tests, and the supernatant was thereafter kept at −20 °C. The second portion was set aside for use in RT-PCR analysis at −80 °C [94]. […]

Amyloid-β = test: Brain amyloid-β level (ELISA); type: in vivo, rat; parameters: reduction of β-amyloid levels: concentration or dose not given beside the values; conditions: AlCl3-induced AD rats; for Amyloid-β (ng/g Tissue): brain, mean ± SE, n = 6
Experimental: (§1) The brain tissues of the rats were removed and rigorously washed in isotonic saline 24 h after they were euthanized following the last behavioral test. For histological investigation, four brains per group were preserved for the whole night in 10% neutral buffered formalin. The remaining six brains were split into two sections each. In order to create a 10% homogenate (w/v), the first component was instantaneously homogenized using an ice-cold solution that included 300 mM sucrose and 50 mM Tris-HCl (pH 7.4). The homogenate was centrifuged at 1800× g for 10 min at 4 °C for biochemical tests, and the supernatant was thereafter kept at −20 °C. The second portion was set aside for use in RT-PCR analysis at −80 °C [94].
(§2) See Supplementary Information.

5-HT = test: Brain 5-HT level (fluorometric); type: in vivo, rat; conditions: AlCl3-induced AD rats; for 5-HT (ng/g Tissue): brain tissue, mean ± SE, n = 6
Experimental: as §1
(§3) Brain monoamine levels were promptly assessed following the rats’ euthanasia to prevent changes in the substance’s concentration. Dopamine (DA), norepinephrine (NE), and serotonin (5-HT) fluorometric tests were conducted on brain tissue homogenate using the Ciarlone method. […] The concentrations were articulated as nanograms per gram of fresh tissue using the fluorescence of reference solutions [95].

DA = test: Brain DA level (fluorometric); type: in vivo, rat; conditions: AlCl3-induced AD rats; for DA (ng/g Tissue): brain tissue, mean ± SE, n = 6
Experimental: as §1, §3

NE = test: Brain NE level (fluorometric); type: in vivo, rat; conditions: AlCl3-induced AD rats; for NE (nmol/g Tissue): brain tissue, mean ± SE, n = 6
Experimental: as §1, §3

TLR4 = TLR4 mRNA expression (RT-qPCR); type: in vivo, rat; parameters: reduction of TLR4 mRNA expression: concentration or dose not given beside the values; conditions: AlCl3-induced AD rats; for TLR4: mRNA expression level, mean ± SE, n = 6
Experimental: as §1, §2

NFκβ = NFκβ mRNA expression (RT-qPCR); type: in vivo, rat; parameters: reduction of NFκβ mRNA expression: concentration or dose not given beside the values; conditions: AlCl3-induced AD rats; for NFκβ: mRNA expression level, mean ± SE, n = 6
Experimental: as §1, §2

NLRP3 = NLRP3 mRNA expression (RT-qPCR); type: in vivo, rat; parameters: reduction of NLRP3 mRNA expression: concentration or dose not given beside the values; conditions: AlCl3-induced AD rats; for NLRP3: mRNA expression level, mean ± SE, n = 6
Experimental: as §1, §2

GSK3β = GSK3β gene expression (RT-qPCR); type: in vivo, rat; conditions: AlCl3-induced AD rats; for GSK3β: gene expression, mean ± SE, n = 6
Experimental: as §1, §2

MDA = test: Brain MDA content (thiobarbituric acid method); type: in vivo, rat; parameters: reduction in MDA brain content: concentration or dose not given beside the values; conditions: AlCl3-induced AD rats; for MDA (nmol/g Tissue): brain tissue, mean ± SE, n = 6
HO-1 = HO-1 mRNA expression (RT-qPCR); type: in vivo, rat; conditions: AlCl3-induced AD rats; for HO-1: mRNA expression in brain tissue, mean ± SE, n = 6
Experimental: as §1, §2

BChE = biological target: T1, BChE (Homo sapiens, UniProt P06276); test: biochemical; conditions: for IC50: fluorescence kit, triplicate; for Selectivity Index BChE/AChE: ratio of IC50 BChE to IC50 AChE, <1 = preferential BChE inhibition
T1 construct: purchased Invitrogen EIABCHEF
T1 sequence (P06276 29-602): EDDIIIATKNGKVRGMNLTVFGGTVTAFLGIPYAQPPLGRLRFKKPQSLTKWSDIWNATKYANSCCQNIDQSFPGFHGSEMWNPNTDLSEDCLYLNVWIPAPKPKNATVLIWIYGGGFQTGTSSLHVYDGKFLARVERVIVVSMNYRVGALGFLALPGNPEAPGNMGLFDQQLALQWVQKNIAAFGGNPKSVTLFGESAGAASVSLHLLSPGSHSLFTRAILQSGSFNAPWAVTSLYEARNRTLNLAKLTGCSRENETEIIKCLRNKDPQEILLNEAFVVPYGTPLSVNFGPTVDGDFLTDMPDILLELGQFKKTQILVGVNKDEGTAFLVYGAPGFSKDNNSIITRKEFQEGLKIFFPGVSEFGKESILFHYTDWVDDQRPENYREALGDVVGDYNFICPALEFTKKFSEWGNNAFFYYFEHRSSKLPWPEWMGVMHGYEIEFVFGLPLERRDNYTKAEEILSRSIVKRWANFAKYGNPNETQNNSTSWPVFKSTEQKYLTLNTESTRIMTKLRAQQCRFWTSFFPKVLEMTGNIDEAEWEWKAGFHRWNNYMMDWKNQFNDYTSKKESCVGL
Experimental: Using an Invitrogen BChE test kit (Catalog #EIABCHEF), the assay was performed in compliance with the supplier’s instructions. The study was conducted using black 96-well plates. […] Each well was then filled with 50 μL of the reaction mixture, which consisted of fluorescence detection reagent and butyrylthiocholine iodide in assay buffer. The plate was then left to incubate for 20 min at room temperature. Finally, excitation at 390 nm was used to observe emission at 510 nm using a microplate reader. Background fluorescence was further eliminated for each data point.

BAX/Bcl-2 = BAX/Bcl-2 ratio of gene expression; type: in vivo, rat; conditions: AlCl3-induced AD rats
Experimental: as §1, §2

SMILES	SAP% [1]	reduction of BACE1 levels (BACE1) [%]	BACE1 (ng/mL) (BACE1)	reduction of β-amyloid levels (Amyloid-β) [%]	Amyloid-β (ng/g Tissue) (Amyloid-β)	elevation of 5-HT levels (5-HT) [fold]	5-HT (ng/g Tissue) (5-HT)	elevation of DA levels (DA) [fold]	DA (ng/g Tissue) (DA)	rise in the level of NE (NE) [times]	NE (nmol/g Tissue) (NE)	TLR4 (TLR4)	NFκβ (NFκβ)	NLRP3 (NLRP3)	GSK3β (GSK3β)	MDA (nmol/g Tissue) (MDA)	HO-1 (HO-1)	IC50 (BChE) [µM]	Selectivity Index BChE/AChE (BChE)	BAX/Bcl-2 Ratio (BAX/Bcl-2)	also measured
CCOc1ccc(N2CC(=O)Oc3sc4c(c3C2=O)CCCCC4)cc1 [Compound 14, 4-(4-Ethoxyphenyl)-3,4,7,8,9,10-hexahydro-6H-cyclohepta[4,5]thieno[3,2-f][1,4]oxazepine-2,5-dione]	77.5 ± 2.11 ^abc %	43.8	16.66 ± 0.38 ^abc ng/mL	58.4	11.66 ± 0.17 ^abc ng/g Tissue	4.5	8.22 ± 0.19 ^abc ng/g Tissue	4.3	51.88 ± 2.66 ^abc ng/g Tissue	2.1	386.7 ± 2.66 ^abc nmol/g Tissue	3.60 ± 0.12 ^abc	3.73 ± 0.04 ^abc	3.92 ± 0.04 ^abc	3.13 ± 0.07 ^abc	47.6 ± 0.12 ^abc nmol/g Tissue	0.64 ± 0.009 ^abc	2.93 ± 0.1	7.50	7.84	reduction of TLR4 mRNA expression (TLR4): 62.6%; reduction of NFκβ mRNA expression (NFκβ): 56%; reduction of NLRP3 mRNA expression (NLRP3): 63.2%; reduction in MDA brain content (MDA): 59%; elevation of HO-1 mRNA expression (HO-1): 5.3 fold
CCOC(=O)c1c(O)sc2c1CCCCC2 [Compound 2, Ethyl 2-hydroxy-5,6,7,8-tetrahydro-4H-cyclohepta[b]thiophene-3-carboxylate]	62.33 ± 1.05 ^abc %	20.4	23.60 ± 0.2 ^abc ng/mL	30.2	19.52 ± 0.15 ^abc ng/g Tissue	1.7	3.16 ± 0.63 ^abc ng/g Tissue		24.71 ± 1.62 ^abc ng/g Tissue		256.9 ± 1.62 ^abc nmol/g Tissue	7.66 ± 0.12 ^abc	6.53 ± 0.08 ^abc	8.29 ± 0.09 ^abc	8.80 ± 0.12 ^abc	92.07 ± 0.04 ^abc nmol/g Tissue	0.34 ± 0.032 ^abc	5.72 ± 0.2	5.21	30.11	increase in SAP% [1]: 14.6%; reduction of GSK3β gene expression (GSK3β): 13.7%
COc1ccc(N2CC(=O)Oc3sc4c(c3C2=O)CCCCC4)cc1 [Compound 16, 4-(4-Methoxyphenyl)-3,4,7,8,9,10-hexahydro-6H-cyclohepta[4,5]thieno[3,2-f][1,4]oxa-zepine-2,5-dione]	71.67 ± 1.15 ^abc %		17.44 ± 0.23 ^abc ng/mL	55.4	12.44 ± 0.14 ^abc ng/g Tissue	5.9	10.65 ± 0.71 ^abc ng/g Tissue	4.4	52.96 ± 1.52 ^abc ng/g Tissue	2	366.4 ± 1.52 ^abc nmol/g Tissue	4.43 ± 0.08 ^abc	4.70 ± 0.12 ^abc	4.32 ± 0.10 ^abc	2.18 ± 0.10 ^abc	31.63 ± 0.05 ^abc nmol/g Tissue	0.50 ± 0.020 ^abc	5.23 ± 0.18	6.89	9.75	reduction of TLR4 mRNA expression (TLR4): 53.9%; reduction of NFκβ mRNA expression (NFκβ): 44.5%; reduction of NLRP3 mRNA expression (NLRP3): 59.5%; reduction in MDA brain content (MDA): 72.8%; elevation of HO-1 mRNA expression (HO-1): 4.1 fold
